Experiments:
[1] = target: T1, hOGA (Homo sapiens, UniProt O60502); test: OGA cellular assay (ICC detection of O-GlcNAcylated proteins in HEK293 cells inducible for P301L mutant human Tau); type: cell-based; parameters: Emax: dose or concentration left out as unconfirmed; conditions: for EC50: Cellular hOGA, pEC50, Table 5; for Emax: HEK293, read-out: Cellular Emax (%)
T1 construct: endogenous in cells; host or cells: HEK293 cells inducible for P301L mutant human Tau (isoform 2N4R)
T1 sequence (O60502 1-916): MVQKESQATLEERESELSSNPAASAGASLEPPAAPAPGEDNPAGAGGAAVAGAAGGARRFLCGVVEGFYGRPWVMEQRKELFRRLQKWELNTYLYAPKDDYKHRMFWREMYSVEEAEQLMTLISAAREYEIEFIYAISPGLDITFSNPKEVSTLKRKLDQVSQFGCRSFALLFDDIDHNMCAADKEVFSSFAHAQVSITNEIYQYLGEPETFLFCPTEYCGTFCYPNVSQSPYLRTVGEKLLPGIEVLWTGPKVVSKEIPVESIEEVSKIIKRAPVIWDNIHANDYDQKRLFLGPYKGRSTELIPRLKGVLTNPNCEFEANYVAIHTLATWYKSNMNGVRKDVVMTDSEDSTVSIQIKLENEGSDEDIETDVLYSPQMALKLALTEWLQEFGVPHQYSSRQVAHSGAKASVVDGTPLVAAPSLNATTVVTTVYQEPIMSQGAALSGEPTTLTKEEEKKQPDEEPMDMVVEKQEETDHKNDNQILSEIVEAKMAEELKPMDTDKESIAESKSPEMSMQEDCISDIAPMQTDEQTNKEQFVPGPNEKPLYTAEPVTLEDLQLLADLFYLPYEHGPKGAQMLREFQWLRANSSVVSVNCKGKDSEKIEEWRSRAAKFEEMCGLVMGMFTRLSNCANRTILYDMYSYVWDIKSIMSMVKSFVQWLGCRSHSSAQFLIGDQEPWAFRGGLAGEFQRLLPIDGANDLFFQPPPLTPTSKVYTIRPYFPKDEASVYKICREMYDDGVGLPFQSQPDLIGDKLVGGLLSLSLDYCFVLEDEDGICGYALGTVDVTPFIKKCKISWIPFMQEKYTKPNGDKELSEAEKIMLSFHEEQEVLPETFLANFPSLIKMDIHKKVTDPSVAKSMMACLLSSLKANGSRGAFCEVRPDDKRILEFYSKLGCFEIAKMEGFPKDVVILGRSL
Summary of the method: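 HEK293 cells inducible for P301L Tau (2N4R), seeded in low-glucose medium, treated with compound for 6 h at 0.2% DMSO. After PFA fixation, O-GlcNAcylated proteins stained with CTD110.6 and imaged (488 nm intensity, 9 fields/well); Hoechst nuclei count for toxicity. IC50 by non-linear regression, Thiamet-G 200 μM as maximum.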

[2] = target: T2, recombinant human Meningioma Expressed Antigen 5 (MGEA5), also referred to as O-GlcNAcase (OGA) (Homo sapiens, UniProt O60502); test: OGA biochemical assay (inhibition of FM-GlcNAc hydrolysis, fluorescence); conditions: for IC50: Enzymatic hOGA, pIC50, Table 5; for Emax: read-out: Enzymatic Emax (%)
T2 construct: Full length OGA enzyme was purchased at OriGene (cat #TP322411); purchased OriGene TP322411
T2 sequence (O60502 1-916): T1 sequence (O60502 1-916)
Summary of the method: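 Full-length recombinant OGA at 2 nM with 100 uM FM-GlcNAc in 200 mM citrate/phosphate buffer, 0.005% Tween-20. IC50 and Hill coefficient from curve fit between no-inhibitor and saturating standard-inhibitor controls.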

[3] = HEK293 P301L Tau cells, 6 hours incubation, O-GlcNAcylation readout
[4] = full length OGA 2 nM, FM-GlcNAc 100 uM, 6 h at room temperature

Structure (SMILES) | EC50 [1, 3] [nM] | Emax [1] [%] | melting point [°C] | IC50 [2, 4] [nM] | Emax [2] [%] | Cellular hOGA; pEC50 ([1]; Table 5, HEK293 P301L Tau cells, 6 hours incubation, O-GlcNAcylation readout) | Cellular hOGA; pEC50 ([1]; second table, averaged values over several runs, obtained after recalibration of the equipment) | Enzymatic hOGA; pIC50 ([2]; Table 5, full length OGA 2 nM, FM-GlcNAc 100 uM, 6 h at room temperature)
Cc1cc(C(F)(F)F)cc(C)c1Nc1nccc2c1ncn2CC(=O)N(C)C [Compound 61, 2-(4-((2,6-Dimethyl-4-(trifluoromethyl)phenyl)amino)-1H-imidazo[4,5-c]pyridin-1-yl)-N,N-dimethylacetamide] | 107 | 87 | 207.65 | 9.33 | 98 |  |  | 
CCCCn1ncc2c(Nc3c(Cl)cccc3Cl)nccc21 [Compound 66, 1-Butyl-N-(2,6-dichlorophenyl)pyrazolo[4,3-c]pyridin-4-amine] | > 1000 | 45 | 144.7 | 85.1 | 104 |  |  | 
Cc1cc(Cn2cnc3c(Nc4c(C)cc(C(F)(F)F)cc4C)nccc32)no1 [Compound 80] |  | 94 | 164.7 | 8.91 | 104 |  |  | 
Cc1cc(C)cc(-n2nc(C)c(Nc3nccc4c3ncn4CC(=O)N(C)C)c2C)c1 [Compound 43] | 437 | 65 | 154.7 | 14.8 | 99 |  |  | 
Cc1cc(OC(F)(F)F)cc(Cl)c1Nc1nccc2c1ncn2CC(=O)N(C)C [Compound 16] | 316 | 66 | 182.81 | 13.5 | 101 |  |  | 
CN(C)C(=O)Cn1cnc2c(Nc3c(Cl)cc(F)cc3C(F)(F)F)nccc21 [Compound 24] | 398 | 82 | 219.9 | 45.7 | 96 |  |  | 
Cc1cc(C(F)(F)F)cc(C)c1Nc1nccc2c1ncn2-c1ncc(F)cn1 [Compound 69] |  | 6 | 198.2 |  | 80 | <6 | 6.14 | 6.14
Cc1cc(OC(F)(F)F)cc(C)c1Nc1nccc2c1ncn2CC(=O)N(C)C [Compound 9] | 58.9 | 82 | 186.5 | 6.76 | 99 |  |  | 
[2H]C([2H])([2H])N(C(=O)Cn1cnc2c(Nc3c(C)cc(C(F)(F)F)cc3C)nccc21)C([2H])([2H])[2H] [Compound 53] | 135 | 87 | 208.2 | 7.24 | 103 |  |  | 
Cc1cc(F)cc(C)c1Nc1nccc2c1ncn2CC(=O)N(C)C [Compound 20] | 170 | 83 | 216.7 | 18.6 | 98 |  |  | 
Cc1cc(C(F)(F)F)nc(C)c1Nc1nccc2c1ncn2CC(=O)N(C)C [Compound 23] | 1020 | 51 | 233.3 | 45.7 | 99 |  |  | 
CN(C)C(=O)Cn1cnc2c(Nc3c(Cl)cc(F)cc3Cl)nccc21 [Compound 21] | 123 | 69 | 243.4 | 30.9 | 95 |  |  | 
CC(C)c1cc(C(F)(F)F)cc(F)c1Nc1nccc2c1ncn2CC(=O)N(C)C [Compound 31] | > 1000 | 36 | 191.4 | 87.1 | 104 |  |  | 
Cc1cc(F)cc(F)c1Nc1nccc2c1ncn2CC(C)(F)F [Compound 3] | 741 | 57 | 174.99 | 25.7 | 101 |  |  | 
Cc1cc(C)c(Nc2nccc3c2ncn3CC(=O)N(C)C)c(C)c1 [Compound 19] | 537 | 62 | 270.2 | 20 | 98 |  |  | 
Cc1nccc(C(F)F)c1Nc1nccc2c1ncn2CC(=O)N(C)C [Compound 27] | > 1000 | 18 | 216.6 | 372 | 89 |  |  | 
Cc1cc(C(F)(F)F)cc(C)c1Nc1nccc2c1cnn2CC(=O)N(C)C [Compound 64, 2-[4-[2,6-Dimethyl-4-(trifluoromethyl)anilino]pyrazolo[4,3-c]pyridin-1-yl]-N,N-dimethyl-acetamide] | 234 | 78 | 196.5 | 42.7 | 101 |  |  | 
Cc1cc(C(F)(F)F)cc(C)c1Nc1ncc(F)c2c1ncn2CC(=O)N(C)C [Compound 35] | > 1000 | 25 | 236.7 | 178 | 96 |  |  | 

From US20230099293A1, “OGA INHIBITOR COMPOUNDS” (priority 2019, published 2023)
